Assay results as given in PubChem BioAssay (NCI).
Several values for one entry are separate records, joined by “and”; a condition that tells them apart may be missing. Identical values can stand only once.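 Five concentrations, 48 hours, 96-well plates. GI50 marks 50% less growth. At the TGI there is no net growth.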

Columns and labels:
Test in all cases: NCI anticancer screen, dose series, 48 h
CCRF-CEM leukemia = test system: CCRF-CEM leukemia
RXF 393 renal = test system: RXF 393 renal
NCI-H226 lung = test system: NCI-H226 lung
SF-295 CNS = test system: SF-295 CNS
M14 melanoma = test system: M14 melanoma
SR leukemia = test system: SR leukemia
SN12C renal = test system: SN12C renal
UACC-62 melanoma = test system: UACC-62 melanoma
HOP-18 NSCLC = test system: HOP-18 NSCLC
OVCAR-8 ovarian = test system: OVCAR-8 ovarian
MALME-3M melanoma = test system: MALME-3M melanoma
HT29 colon = test system: HT29 colon
UO-31 renal = test system: UO-31 renal
OVCAR-3 ovarian = test system: OVCAR-3 ovarian
HCT-15 colon = test system: HCT-15 colon
SF-539 CNS = test system: SF-539 CNS
SK-MEL-2 melanoma = test system: SK-MEL-2 melanoma
HOP-92 NSCLC = test system: HOP-92 NSCLC
DMS 114 small cell lung = test system: DMS 114 small cell lung
HOP-62 NSCLC = test system: HOP-62 NSCLC
UACC-257 melanoma = test system: UACC-257 melanoma
EKVX NSCLC = test system: EKVX NSCLC
IGROV1 ovarian = test system: IGROV1 ovarian
OVCAR-4 ovarian = test system: OVCAR-4 ovarian
ACHN renal = test system: ACHN renal
SNB-75 CNS = test system: SNB-75 CNS
HL-60(TB) leukemia = test system: HL-60(TB) leukemia
HCT-116 colon = test system: HCT-116 colon
NCI-H23 lung = test system: NCI-H23 lung
KM20L2 colon = test system: KM20L2 colon
SK-OV-3 ovarian = test system: SK-OV-3 ovarian
U251 CNS = test system: U251 CNS
HCC-2998 colon = test system: HCC-2998 colon
TK-10 renal = test system: TK-10 renal
SK-MEL-28 melanoma = test system: SK-MEL-28 melanoma
RPMI-8226 leukemia = test system: RPMI-8226 leukemia
KM12 colon = test system: KM12 colon
XF 498 CNS = test system: XF 498 CNS
786-0 renal = test system: 786-0 renal
CAKI-1 renal = test system: CAKI-1 renal
SNB-78 CNS = test system: SNB-78 CNS
M19-MEL melanoma = test system: M19-MEL melanoma
DLD-1 colon = test system: DLD-1 colon
DMS 273 small cell lung = test system: DMS 273 small cell lung
LXFL 529 NSCLC = test system: LXFL 529 NSCLC
NCI-H460 lung = test system: NCI-H460 lung
LOX IMVI melanoma = test system: LOX IMVI melanoma
NCI-H522 lung = test system: NCI-H522 lung
SW-620 colon = test system: SW-620 colon
SK-MEL-5 melanoma = test system: SK-MEL-5 melanoma
SNB-19 CNS = test system: SNB-19 CNS
SF-268 CNS = test system: SF-268 CNS

COc1cc(C2c3cc4c(cc3[C@@H](NCCN(C)C)C3COC(=O)[C@H]23)OCO4)cc(OC)c1O (stereo not given in full)
GI50 (CCRF-CEM leukemia): 0.0136 µM and 0.0277 µM | TGI (CCRF-CEM leukemia): 0.417 µM and 0.352 µM | GI50 (RXF 393 renal): 0.301 µM and 1.11 µM | TGI (RXF 393 renal): 2.08 µM and 4.37 µM | TGI (NCI-H226 lung): 0.0481 µM and 0.152 µM | GI50 (SF-295 CNS): 0.0652 µM and 0.15 µM | TGI (SF-295 CNS): 1.05 µM and 1.66 µM | TGI (M14 melanoma): 1.61 µM and 2.31 µM | GI50 (SR leukemia): 14.4 µM | TGI (SR leukemia): > 100 µM | GI50 (SN12C renal): 0.0256 µM and 0.084 µM | TGI (SN12C renal): 0.406 µM and 0.982 µM | GI50 (UACC-62 melanoma): 0.0319 µM and 0.088 µM | TGI (UACC-62 melanoma): 0.319 µM and 0.834 µM | GI50 (HOP-18 NSCLC): 0.108 µM and 0.428 µM | TGI (HOP-18 NSCLC): 2.63 µM and 6.98 µM | GI50 (OVCAR-8 ovarian): 0.265 µM and 1.08 µM | TGI (OVCAR-8 ovarian): 1.72 µM and 2.72 µM | TGI (MALME-3M melanoma): 1.61 µM and 2.3 µM | GI50 (HT29 colon): 1.36 µM | TGI (HT29 colon): 5 µM | TGI (UO-31 renal): 0.633 µM and 1.32 µM | TGI (OVCAR-3 ovarian): 2.81 µM and 3.31 µM | GI50 (HCT-15 colon): 1.02 µM | TGI (HCT-15 colon): 2.63 µM | TGI (SF-539 CNS): 0.207 µM and 0.974 µM | GI50 (SK-MEL-2 melanoma): 0.397 µM and 1.22 µM | TGI (SK-MEL-2 melanoma): 1.45 µM and 3.19 µM | TGI (HOP-92 NSCLC): 0.0928 µM and 0.335 µM | GI50 (DMS 114 small cell lung): 0.0491 µM and 0.347 µM | TGI (DMS 114 small cell lung): 0.533 µM and 2.11 µM | GI50 (HOP-62 NSCLC): 0.0191 µM and 0.0491 µM | TGI (HOP-62 NSCLC): 0.191 µM and 0.372 µM | GI50 (UACC-257 melanoma): 0.526 µM and 1.62 µM | TGI (UACC-257 melanoma): 4.14 µM and 6.16 µM | GI50 (EKVX NSCLC): 1.56 µM and 3.29 µM | TGI (EKVX NSCLC): 5.08 µM and 11 µM | GI50 (IGROV1 ovarian): 0.391 µM and 1.06 µM | TGI (IGROV1 ovarian): 2.39 µM and 3.57 µM | TGI (OVCAR-4 ovarian): 5.19 µM and 13.3 µM | GI50 (ACHN renal): < 0.01 µM and 0.0269 µM | TGI (ACHN renal): 0.045 µM and 0.192 µM | TGI (SNB-75 CNS): 0.674 µM | TGI (HL-60(TB) leukemia): 0.124 µM and 0.121 µM | GI50 (HCT-116 colon): 0.272 µM and 0.715 µM | TGI (HCT-116 colon): 2.18 µM and 3.79 µM | GI50 (NCI-H23 lung): 0.103 µM and 0.228 µM | TGI (NCI-H23 lung): 0.673 µM and 1.41 µM | GI50 (KM20L2 colon): 0.425 µM and 1.14 µM | TGI (KM20L2 colon): 2.16 µM and 3.62 µM | GI50 (SK-OV-3 ovarian): 0.0393 µM and 0.103 µM | TGI (SK-OV-3 ovarian): 0.565 µM and 0.649 µM | TGI (U251 CNS): 0.365 µM and 1.33 µM | GI50 (HCC-2998 colon): 0.383 µM and 1.21 µM | TGI (HCC-2998 colon): 1.69 µM and 2.64 µM | TGI (TK-10 renal): 3.58 µM and 5.2 µM | TGI (SK-MEL-28 melanoma): 2.14 µM and 3.38 µM | TGI (RPMI-8226 leukemia): > 100 µM and 12 µM | TGI (KM12 colon): 2.22 µM and 2.63 µM | TGI (XF 498 CNS): 0.978 µM and 2.02 µM | GI50 (786-0 renal): 0.0355 µM and 0.132 µM | TGI (786-0 renal): 0.457 µM and 1.1 µM | GI50 (CAKI-1 renal): 0.306 µM and 0.652 µM | TGI (CAKI-1 renal): 3.46 µM and 4.21 µM | GI50 (SNB-78 CNS): 1.24 µM and 3.25 µM | TGI (SNB-78 CNS): 68.3 µM and 77.8 µM | TGI (M19-MEL melanoma): 4.11 µM and 7.18 µM | TGI (DLD-1 colon): 4.03 µM and 7.43 µM | GI50 (DMS 273 small cell lung): 0.0137 µM and 0.0329 µM | TGI (DMS 273 small cell lung): 0.803 µM and 1.36 µM | TGI (LXFL 529 NSCLC): 6.9 µM and 13.2 µM | TGI (NCI-H460 lung): 0.135 µM and 0.326 µM | GI50 (LOX IMVI melanoma): 0.0366 µM and 0.119 µM | TGI (LOX IMVI melanoma): 0.69 µM and 1.29 µM | TGI (NCI-H522 lung): 1.76 µM and 2.2 µM | TGI (SW-620 colon): 3.51 µM and 3.71 µM | TGI (SK-MEL-5 melanoma): 1.09 µM and 1.55 µM | TGI (SNB-19 CNS): 5.18 µM and 9.62 µM | GI50 (SF-268 CNS): 0.137 µM and 0.316 µM | TGI (SF-268 CNS): 1.49 µM and 4.29 µM
